Some test systems named below: UACC-62 melanoma; NCI-H23 lung; T-47D breast; PC-3 prostate; NCI-H460 lung; HT29 colon; U251 CNS; CAKI-1 renal; K-562 leukemia; BT-549 breast.
Holding throughout (assay): growth of human tumour cells (NCI), 48 h

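Results reflect a 48-hour exposure of cells in 96-well plates to compound at five concentrations. The concentration for 50% growth inhibition is given as GI50. TGI: total growth inhibition.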

Take `COc1cc2c(cc1-c1c(C)noc1C)ncc1[nH]c(=O)n([C@H](C)c3ccccn3)c12`: the GI50 with UACC-62 melanoma was 0.145 µM; in the assay on NCI-H23 lung it was 6.22 µM; with T-47D breast it was 1.22 µM; with PC-3 prostate, 2.72 µM; in the assay on NCI-H460 lung, 11.2 µM; in the assay with HT29 colon, 0.244 µM. Further, the GI50 was 8.82 µM with U251 CNS, 0.0939 µM in the assay on CAKI-1 renal, 0.75 µM with K-562 leukemia and 13.1 µM in the assay with BT-549 breast. For the same molecule, the TGI with UACC-62 melanoma is above 87.2 µM; with NCI-H23 lung, above 100 µM; in the assay with T-47D breast it was above 100 µM; with PC-3 prostate, above 100 µM; with NCI-H460 lung it was above 100 µM; in the assay with HT29 colon, above 100 µM. The TGI in the assay on U251 CNS, in the assay on CAKI-1 renal, with K-562 leukemia and in the assay on BT-549 breast was above 100 µM each time.

In the case of `C=C(C)C(=O)N1c2ccc(OC)cc2CC1C(=O)OCC` (stereo not given), the TGI with UACC-62 melanoma, in the assay on NCI-H23 lung, in the assay with T-47D breast, in the assay on PC-3 prostate, in the assay with NCI-H460 lung and in the assay on HT29 colon was above 100 µM throughout. Moreover, the TGI in the assay with U251 CNS, with CAKI-1 renal, in the assay with K-562 leukemia and in the assay on BT-549 breast was above 100 µM in each case.

`Cc1cccc2cc3ccc4ccccc4c3cc12`: the TGI in the assay with UACC-62 melanoma is above 100 µM; in the assay on NCI-H23 lung, above 100 µM; in the assay with T-47D breast, above 100 µM; in the assay with PC-3 prostate, above 100 µM; in the assay with NCI-H460 lung, 83.2 µM; with HT29 colon, 97.8 µM. In addition, the TGI in the assay on U251 CNS, with CAKI-1 renal, in the assay on K-562 leukemia and in the assay on BT-549 breast was above 100 µM each time.

For the molecule `C[C@@H]1CCC2[C@@H](C)[C@H](OC(=O)CCC(=O)NCCNC(=O)Cc3cc(=O)oc4cc(N(C)C)ccc34)O[C@@H]3O[C@]4(C)CC[C@@H]1C23OO4` (stereo not given in full), the GI50 in the assay with UACC-62 melanoma is 0.711 µM; in the assay on NCI-H23 lung, 0.749 µM; in the assay on T-47D breast, 0.862 µM; with PC-3 prostate, 0.189 µM; in the assay with NCI-H460 lung, 2.43 µM; in the assay on HT29 colon, 1.05 µM. In addition, the GI50 in the assay with U251 CNS is 1.33 µM; in the assay on CAKI-1 renal, 2.64 µM; with K-562 leukemia, 0.348 µM; in the assay on BT-549 breast it was 3.07 µM. For the same molecule, the TGI is above 91 µM in the assay with UACC-62 melanoma; 46.6 µM in the assay with NCI-H23 lung; 50.2 µM with T-47D breast; above 100 µM in the assay on PC-3 prostate; 19.2 µM in the assay with NCI-H460 lung; 19.6 µM with HT29 colon. In addition, the TGI in the assay with U251 CNS is 19.1 µM; with CAKI-1 renal it was above 25.6 µM; in the assay on K-562 leukemia it was 13.8 µM; in the assay with BT-549 breast, above 100 µM.

On to `NCCCn1c2c(c3ccc([N+](=O)[O-])cc3c1=O)C(=O)c1cc(Cl)ccc1-2`, for which the GI50 was below 0.01 µM in the assay with UACC-62 melanoma; below 0.01 µM in the assay on NCI-H23 lung; below 0.01 µM in the assay on T-47D breast; below 0.0163 µM in the assay on PC-3 prostate; below 0.01 µM in the assay with NCI-H460 lung; below 0.01 µM with HT29 colon. Further, the GI50 in the assay on U251 CNS was below 0.01 µM; in the assay with CAKI-1 renal it was below 0.01 µM; in the assay on K-562 leukemia it was below 0.01 µM; with BT-549 breast it was 0.0635 µM. Besides, the TGI with UACC-62 melanoma is 0.0696 µM; in the assay on NCI-H23 lung, 0.055 µM; in the assay with T-47D breast it was 1.2 µM; in the assay with PC-3 prostate, 0.381 µM; in the assay with NCI-H460 lung it was 0.128 µM; in the assay on HT29 colon, 0.225 µM. The TGI worked out at 0.123 µM in the assay with U251 CNS, 0.317 µM in the assay with CAKI-1 renal, 0.0411 µM in the assay with K-562 leukemia and 1.4 µM in the assay with BT-549 breast.

For the molecule `COc1cccc2cc(N(C)c3nc(C)nc4ccsc34)ccc12`, the GI50 with UACC-62 melanoma, with NCI-H23 lung, in the assay on T-47D breast, in the assay with PC-3 prostate, in the assay with NCI-H460 lung and with HT29 colon was below 0.01 µM each time. In addition, the GI50 in the assay with U251 CNS, in the assay with CAKI-1 renal, in the assay on K-562 leukemia and in the assay on BT-549 breast was below 0.01 µM throughout. The TGI in the assay on UACC-62 melanoma is 12.5 µM; with NCI-H23 lung it was 18 µM; with T-47D breast, above 100 µM; with PC-3 prostate, 15.1 µM; in the assay with NCI-H460 lung, 10.9 µM; in the assay with HT29 colon it was 11.6 µM. For the same molecule, the TGI in the assay with U251 CNS is 15.1 µM; in the assay with CAKI-1 renal, 15.3 µM; with K-562 leukemia, above 48.6 µM; in the assay on BT-549 breast, 1.3 µM.

`Clc1ccc2c(NCCN3CCN(c4ccnc(N5CCCC5)n4)CC3)ccnc2c1`: the GI50 with UACC-62 melanoma was 2.13 µM; in the assay on NCI-H23 lung it was 6.88 µM; in the assay with T-47D breast, 2.01 µM; in the assay with PC-3 prostate, 5.97 µM; with NCI-H460 lung, 3.25 µM; in the assay on HT29 colon it was 1.34 µM. The GI50 was 3.09 µM in the assay with U251 CNS, 2.69 µM with CAKI-1 renal, 1.47 µM in the assay with K-562 leukemia and 5.63 µM with BT-549 breast. The TGI with UACC-62 melanoma amounted to 4.51 µM; with NCI-H23 lung, 22.7 µM; in the assay on T-47D breast, 5.59 µM; with PC-3 prostate, 20.8 µM; in the assay on NCI-H460 lung, 10.1 µM; with HT29 colon it was 12.2 µM. Also, the TGI in the assay with U251 CNS came to 10.1 µM; in the assay with CAKI-1 renal it was 10.3 µM; in the assay with K-562 leukemia it was 9.76 µM; with BT-549 breast, 19.4 µM.

For `Cc1[nH]ccc2cc3nc4ccccc4c3cc12`, the GI50 was 3.52 µM in the assay with UACC-62 melanoma; 2.55 µM in the assay with NCI-H23 lung; 3.62 µM in the assay with T-47D breast; 2.46 µM in the assay with PC-3 prostate; 1.39 µM with NCI-H460 lung; 1.16 µM in the assay with HT29 colon. The GI50 in the assay on U251 CNS is 2.82 µM; with CAKI-1 renal, 2.38 µM; in the assay on K-562 leukemia, 2.8 µM; in the assay with BT-549 breast, 2.74 µM. In addition, the TGI is 12.3 µM with UACC-62 melanoma; 14.5 µM with NCI-H23 lung; 18.9 µM in the assay with T-47D breast; 11.7 µM with PC-3 prostate; 3.52 µM in the assay with NCI-H460 lung; 3.55 µM in the assay with HT29 colon. Besides, the TGI in the assay with U251 CNS amounted to 12.4 µM; in the assay on CAKI-1 renal it was 10.8 µM; with K-562 leukemia, 10.4 µM; in the assay with BT-549 breast, 13.3 µM.

With `c1cc(C2N3CCCN2CC3)ccn1` (stereo not given), the TGI in the assay with UACC-62 melanoma, in the assay on NCI-H23 lung, in the assay with T-47D breast, in the assay with PC-3 prostate, with NCI-H460 lung and in the assay on HT29 colon was above 100 µM each time. Besides, the TGI in the assay on U251 CNS, with CAKI-1 renal, in the assay with K-562 leukemia and in the assay with BT-549 breast was above 100 µM in each case.

Values taken from PubChem BioAssay (NCI).
